Among the data in patent US6251943A, “Method of treating or preventing septic shock by administering a MEK inhibitor” (Warner-Lambert Company, priority 1999, dated 2001) are IC50 values, retold here.

MEK, sequence (Q02750 whole entry, the tested form may be a part): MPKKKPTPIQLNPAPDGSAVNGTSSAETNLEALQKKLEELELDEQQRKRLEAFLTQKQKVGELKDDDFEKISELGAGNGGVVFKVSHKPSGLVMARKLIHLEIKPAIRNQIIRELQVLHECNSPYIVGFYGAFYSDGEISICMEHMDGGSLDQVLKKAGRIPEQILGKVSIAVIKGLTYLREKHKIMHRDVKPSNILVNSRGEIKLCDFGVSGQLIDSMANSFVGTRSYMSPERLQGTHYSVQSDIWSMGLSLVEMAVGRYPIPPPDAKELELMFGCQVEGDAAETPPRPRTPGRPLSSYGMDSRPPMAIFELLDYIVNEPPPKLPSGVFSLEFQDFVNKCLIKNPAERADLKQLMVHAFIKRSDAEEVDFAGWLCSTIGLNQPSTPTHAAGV

The test system of one test is MAP kinase. The test is described as follows: "In Vivo" activity (whole cell MAP kinase assay). In kind it is cell-based. The settings on record: Table 2. On the procedure: To determine if compounds were able to block activation of MAP kinase in whole cells, the following protocol was used: Cells were plated in multi-well plates and grown to confluence. Cells were then serum-deprived overnight. Cells were exposed to the desired concentrations of compound or vehicle (DMSO) for 30 minutes, followed by addition of a growth factor, for example, PDGF (100 ng/mL). After a 5-minute treatment with the growth factor, cells were washed with PBS, then lysed in a buffer consisting of 70 mM NaCl, 10 mM HEPES (pH 7.4), 50 mM glycerol phosphate, and 1% Triton X-100. Lysates were clarified by centrifugation at 13,000×g for 10 minutes. Five micrograms of the resulting supernatants were incubated with […] microtubule associated protein-2 (Map2) for 15 minutes at 30° C. in a final volume of 25 μL containing 50 mM Tris (pH 7.4), 10 mM MgCl2, 2 mM EGTA and 30 μM [γ-^32 P]ATP. Reactions were terminated by addition of Laemmli sample buffer. Phosphorylated Map2 was resolved on 7.5% acrylamide gels and incorporated radioactivity determined by autoradiography and subsequent excision of the bands followed by scintillation counting.
The in vitro and in vivo biological activity of several representative compounds of Formula I and II in the foregoing assays is presented in Tables 1 and 2.
For the molecule `Cc1cc(I)ccc1Nc1cc(F)ccc1C(=O)NO` [Example 1a, 4-Fluoro-N-hydroxy-2-(4-iodo-2-methyl-phenylamino)-benzamide], the concentration for half-maximal inhibition (IC50) (usually the point on the concentration scale where inhibition reaches its midpoint) turned out to be 50 nM.

For the molecule `Cc1cc(I)ccc1Nc1c(C(=O)NO)cc(Br)c(F)c1F` [Example 2a, 5-Bromo-3,4-difluoro-N-hydroxy-2-(4-iodo-2-methyl-phenylamino)-benzamide], the IC50 is 30 nM.

Regarding `Cc1cc(Br)ccc1Nc1cc(F)ccc1C(=O)NO` [Example 3a, 2-(4-bromo-2-methyl-phenylamino)-4-fluoro-N-hydroxy-benzamide], the midpoint of inhibition, the IC50, lay at 3000 nM.

The molecule `Cc1cc(I)ccc1Nc1ccc(Cl)cc1C(=O)NO` [Example 4a, 5-Chloro-N-hydroxy-2-(4-iodo-2-methyl-phenylamino)-benzamide] showed an IC50 of 1000 nM.

As to `Cc1cc(I)ccc1Nc1ccc(Cl)cc1C(=O)N(C)O` [Example 5a, 5-Chloro-N-hydroxy-2-(4-iodo-2-methyl-phenylamino)-N-methyl-benzamide], the IC50 was roughly 30000 nM.

In turn, `Cc1cc(I)ccc1Nc1ccc(Cl)cc1C(=O)NOC1CCCCO1` (stereo not shown) [Example 6a, 5-Chloro-2-(4-iodo-2-methyl-phenylamino)-N-(terahydropyran-2-yloxy)benzamide] had an IC50 of roughly 30000 nM.

The molecule `CONC(=O)c1cc(Cl)ccc1Nc1ccc(I)cc1C` [Example 7a, 5-Chloro-2-(4-iodo-2-methyl-phenylamino)-N-methoxybenzamide] yielded a half-maximal inhibitory concentration (IC50) of less than 30000 nM.

On to `Cc1cc(F)ccc1Nc1cc(F)ccc1C(=O)NO` [Example 8a, 4-Fluoro-N-hydroxy-2-(4-fluoro-2-methyl-phenylamino)-benzamide], for which 3000 nM corresponded to half-maximal inhibition (IC50).

The molecule `Cc1ccccc1Nc1cc(F)ccc1C(=O)NO` [Example 9a, 4-Fluoro-N-hydroxy-2-(2-methylphenylamino)-benzamide] gave an IC50 of 1000 nM. This IC50 lies about 3-fold lower than the previous one.

For the molecule `Cc1cc(Cl)ccc1Nc1cc(F)ccc1C(=O)NO` [Example 11a, 4-Fluoro-N-hydroxy-2-(4-cluoro-2-methyl-phenylamino)-benzamide], the IC50 was 500 nM.

As to `CONC(=O)c1ccc(F)c(F)c1Nc1ccc(I)cc1C` [Example 14a, 3,4-Difluoro-2-(4-iodo-2-methyl-phenylamino)-N-N-methoxy-benzamide], the IC50 was greater than 2000 nM.

Molecule `Cc1cc(I)ccc1Nc1cc(F)ccc1C(=O)NOCc1ccoc1` [Example 20a, 4-Fluoro-N-(furan-3-ylmethoxy)-2-(4-iodo-2-methyl-phenylamino)-benzamide] returned an IC50 of 170 nM.

Take `CC=CCONC(=O)c1cc(Br)c(F)c(F)c1Nc1ccc(I)cc1C` [Example 24a, 5-Bromo-N-(but-2-enyloxy)-3,4-difluoro-2-(4-iodo-2-methyl-phenylamino)-benzamide]: the IC50 was determined as 120 nM.

For `C#CCCONC(=O)c1ccc(F)c(F)c1Nc1ccc(I)cc1C` [Example 29a, N-(But-3-ynyloxy)-3,4-difluoro-2-(4-iodo-2-methyl-phenylamino)-benzamide], the IC50 worked out at 730 nM.

`Cc1cc(I)ccc1Nc1c(C(=O)NOCC#Cc2cccc(F)c2)ccc(F)c1F` [Example 34a, 3,4-Difluoro-N-[3-(3-fluoro-phenyl)-prop-2-ynyloxy]-2-(4-iodo-2-methyl-phenylamino)-benzamide]: the IC50 turned out to be 1500 nM.

In turn, `Cc1cc(I)ccc1Nc1c(C(=O)NOCC#Cc2ccccc2F)ccc(F)c1F` [Example 36a, 3,4-Difluoro-N-[3-(2-fluoro-phenyl)-prop-2-ynyloxy]-2-(4-iodo-2-methyl-phenylamino)-benzamide] showed an IC50 of 70 nM.

As to `CCONC(=O)c1ccc(F)c(F)c1Nc1ccc(I)cc1C` [Example 40a, N-Ethoxy-3,4-difluoro-2-(4-iodo-2-methyl-phenylamino)-benzamide], half-maximal inhibition (IC50) required 125 nM. Compared with the last molecule, the IC50 is about 1.8-fold higher.

`CCCONC(=O)c1ccc(F)c(F)c1Nc1ccc(I)cc1C` [Example 43a, 3,4-Difluoro-2-(4-iodo-2-methyl-phenylamino)-N-propoxy-benzamide] displayed an IC50 of 100 nM. This IC50 and that of the molecule before are within 1.5-fold of each other.

As to `Cc1cc(I)ccc1Nc1c(C(=O)NOC(C)C)ccc(F)c1F` [Example 47a, 3,4-Difluoro-2-(4-iodo-2-methyl-phenylamino)-N-isopropoxy-benzamide], the midpoint of inhibition, the IC50, lay at 130 nM.

`Cc1cc(I)ccc1Nc1c(C(=O)NOC2CCC2)ccc(F)c1F` [Example 50a, N-Cyclobutyloxy-3,4-difluoro-2-(4-iodo-2-methyl-phenylamino)-benzamide]: 220 nM corresponded to half-maximal inhibition (IC50). Against the preceding molecule, the IC50 is about 1.7-fold higher.

With `Cc1cc(I)ccc1Nc1c(C(=O)NOCC2CC2)cc(Br)c(F)c1F` [Example 58a, 5-Bromo-N-cyclopropylmethoxy-3,4-difluoro-2-(4-iodo-2-methyl-phenylamino)], the IC50 turned out to be 14 nM. This IC50 is about 16-fold lower than that of the molecule before.

The molecule `C=C(C)CONC(=O)c1ccc(F)c(F)c1Nc1ccc(I)cc1C` [Example 66a, 3,4-Difluoro-2-(4-iodo-2-methyl-phenylamino)-N-(2-methyl-allyloxy)-benzamide] came in with an IC50 of 130 nM.

Regarding `C#CCONC(=O)c1ccc(F)c(F)c1Nc1ccc(I)cc1C` [Example 71a, 3,4-Difluoro-2-(4-iodo-2-methyl-phenylamino)-N-(prop-2-ynyloxy)-benzamide], the IC50 worked out at 390 nM.

The next test addresses MEK (Homo sapiens, UniProt Q02750). Description: In vitro MEK inhibition (cascade assay for inhibitors of the MAP kinase pathway / in vitro MEK assay). Format: biochemical. Particulars: Table 1. On the procedure: Incorporation of ^32 P into myelin basic protein (MBP) was assayed in the presence of a glutathione S-transferase fusion protein containing p44MAP kinase (GST-MAPK) and a glutathione S-transferase fusion protein containing p45MEK (GST-MEK). The assay solution contained 20 mM HEPES, pH 7.4, 10 MM MgCl2, 1 mM MnCl2, 1 mM EGTA, 50 μM [γ-^32 P]ATP, 10 μg GST-MEK, 0.5 μg GST-MAPK and 40 μg MBP in a final volume of 100 μL. […] Compounds were assessed at 10 μM for ability to inhibit incorporation of ^32 P.
To ascertain whether compounds were inhibiting GST-MEK or GST MAPK, two additional protocols were employed. In the first protocol, compounds were added to tubes containing GST-MEK, followed by addition of GST-MAPK, MBP and [γ-^32 P]ATP. In the second protocol, compounds were added to tubes containing both GST-MEK and GST-MAPK, followed by MBP and [γ-^32 P]ATP.
For evaluation of direct MEK activity, 10 μg GST-MEK1 was incubated with 5 μg of a glutathione S-transferase fusion protein containing p44MAP kinase with a lysine to alanine mutation at position 71 (GST-MAPK-KA). This mutation eliminates kinase activity of MAPK, so only kinase activity attributed to the added MEK remains. Incubations were 15 minutes at 30° C in a final volume of 50 μL containing 50 mM Tris (pH 7.5), […], […], and 10 μM [γ-^32 P]ATP. The reaction was stopped by addition of Laenunli SDS sample buffer and phosphorylated GST-MAPK-KA was resolved by electrophoresis on a 10% polyacrylamide gel. Radioactivity incorporated into GST-MAPK-KA was determined by autoradiography, and subsequently by excision of the bands followed by scintillation counting. […] When these sites are phosphorylated, MEK activity is increased. Phosphorylation of these sites can be mimicked by mutation of the serine residues to glutamate. For this assay, 5 μg GST-MEK-2E was incubated with 5 μg GST-MAPK-KA for 15 minutes at 30° C. in the same reaction buffer as described above. Reactions were terminated and analyzed as above.
Molecule `Cc1cc(I)ccc1Nc1cc([N+](=O)[O-])ccc1C(=O)O` [Example 30, 2-(4-Iodo-2-methyl-phenylamino)-4-nitro-benzoic acid] registered an IC50 of 105000 nM.

In turn, `CCN(CC)C(=O)c1ccc(F)cc1Nc1ccc(I)cc1C` [Example 43, N,N-Diethyl-4-fluoro-2-(4-iodo-2-methyl-phenylamino)-benzamide] displayed an IC50 greater than 1000 nM.

With `Cc1cc(I)ccc1Nc1ccc(F)cc1C(=O)NOCc1ccccc1` [Example 186, N-Benzyloxy-5-fluoro-2-(4-iodo-2-methyl-phenylamino)-benzamide], it took 555 nM to reach half-maximal inhibition (IC50).

For `Cc1cc(I)ccc1Nc1ccc([N+](=O)[O-])cc1C(=O)NCCO` [Example 195, N-(2-Hydroxy-ethyl)-2-(4-iodo-2-methyl-phenylamino)-5-nitro-benzamide], the IC50 turned out to be 12800 nM.

Staying with this test, now noted: Table 2.
`Cc1cc(Br)ccc1Nc1cc(F)ccc1C(=O)NO` [Example 3a, 2-(4-bromo-2-methyl-phenylamino)-4-fluoro-N-hydroxy-benzamide] gave an IC50 of 72 nM.

Turning to `Cc1cc(Cl)ccc1Nc1cc(F)ccc1C(=O)NO` [Example 11a, 4-Fluoro-N-hydroxy-2-(4-cluoro-2-methyl-phenylamino)-benzamide], 334 nM corresponded to half-maximal inhibition (IC50).

On to `Cc1cc(I)ccc1Nc1c(C(=O)NOCC2CC2)cc(Br)c(F)c1F` [Example 58a, 5-Bromo-N-cyclopropylmethoxy-3,4-difluoro-2-(4-iodo-2-methyl-phenylamino)], for which 18 nM corresponded to half-maximal inhibition (IC50). Compared with the last molecule, the IC50 is about 19-fold lower.

Consider `Cc1cc(I)ccc1Nc1cc(F)ccc1C(=O)NOCc1ccccc1` [Example 77a, 4-Fluoro-2-(4-iodo-2-methyl-phenylamino)-N-phenylmethoxy-benzamide], for which it took 280 nM to reach half-maximal inhibition (IC50).
